What was measured:
[1] = target: T1, A3AR (Mus musculus, UniProt Q61618); assay: Western blot analysis of A3AR protein in B16-F10 melanoma cells; format: cell-based; details: B16-F10 melanoma cells, Western blot
T1 construct: endogenous in cells; host or cells: B16-F10 melanoma cells
T1 sequence (Q61618 1-319): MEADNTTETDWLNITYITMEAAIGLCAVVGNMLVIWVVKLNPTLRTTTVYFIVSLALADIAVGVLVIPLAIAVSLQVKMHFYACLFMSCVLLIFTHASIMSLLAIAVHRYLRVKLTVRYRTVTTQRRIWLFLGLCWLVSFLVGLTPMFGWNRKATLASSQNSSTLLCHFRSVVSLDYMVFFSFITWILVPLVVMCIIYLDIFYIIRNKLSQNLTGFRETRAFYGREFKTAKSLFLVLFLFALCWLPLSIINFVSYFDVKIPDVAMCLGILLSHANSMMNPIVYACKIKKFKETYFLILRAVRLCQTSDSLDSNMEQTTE
Method: (§1) To detect the level of expression of the A3AR proteins Western blot analysis was performed. Cells were incubated in the presence and absence of IB-MECA (10 nM), MRS1523 (10 nM), Forskolin (50 nM), 8 Br cAMP (100 μM), Cycloheximide 20 μg/ml or MG 132 (20 nM) for different time periods at 37° C. Cells were then rinsed with ice-cold PBS and transferred to ice-cold lysis buffer (TNN buffer, 50 mM Tris buffer pH=7.5, 150 mM NaCl, NP 40). In the experiment examining the effect of trypsin on A3AR expression, cells were incubated with 0.5 ml of 0.25% trypsin for 5 minutes. The trypsinized cells were washed again with ice-cold PBS, harvested by centrifugation and subjected to lysis in TNN buffer. Cell debris was removed by centrifugation for 10 minutes, at 7500 xg. The supernatant was utilized for Western Blot analysis. Protein concentrations were determined using the Bio-Rad protein assay dye reagent. Equal amounts of the sample (50 μg) were separated by SDS-PAGE, using 12% polyacrylamide gels. The resolved proteins were then electroblotted onto nitrocellulose membranes (Schleicher & Schuell, Keene, NH, USA). Membranes were blocked with 1% bovine serum albumin and incubated with the desired primary antibody (dilution 1:1000) for 24 hours at 4° C. Blots were then washed and incubated with a secondary antibody for 1 hour at room temperature. Bands were recorded using BCIP/NBT color development kit (Promega, Madison, W1, USA). Data presented in the different figures are representative of at least three different experiments.
Receptor internalization by treating melanoma cells with trypsin, which removes the cell surface receptor, was examined.
Time dependent expression of A3AR in the melanoma cells was examined by Western blot analysis.

[2] = tested on: A3AR, GSK-3β, cyclin D1, c-myc; assay: Western blot of regulatory proteins in HCT-116 tumor lesions excised from mice; format: in vivo
Method: as §1
Colon Carcinoma: Nude/BalbC male, 10-week-old mice were used. HCT-116 Human colon carcinoma cells (1.2×10^6 cells in 100 μL PBS) were inoculated subcutaneously to the flank of the mice. Treatment was initiated when tumors reached a size of ˜150 mm^3. Each group contained 10 mice, the control group treated with vehicle only, while the test group was administered daily orally with IB-MECA (10 μg/kg).
After 32 days the mice were sacrificed, tumor lesions were excise and protein was extracted for measurements as described above. Tumor size was evaluated by measuring with a caliber width (W) and length (L) and calculated according to the above formula.

[3] = tested on: PKAc, PKB/Akt, β-catenin, c-myc, cyclin D1, NF-κB, GSK-3β; assay: Immunoblot analysis of protein extracts of HCT-116 human colon carcinoma cells; format: cell-based; details: HCT-116 cells, compared to control
Method: as §1
The effect of IB-MECA on key proteins downstream to A3AR activation in HCT-116 human colon carcinoma cells was also examined in a manner similar to that performed with melanoma cells (see above). FIG. 7 presents Immunoblot analysis of protein extracts derived from colon carcinoma cell, wherein treatment with IB-MECA (right lane) caused down-regulation of PKAc, PKB/Akt, β-catenin, c-myc and cyclin D1 and NF-κB and up-regulation of GSK-3β expression level as compared to control (left lane).

## CNC(=O)[C@H]1O[C@@H](n2cnc3c(NCc4cccc(I)c4)ncnc32)[C@H](O)[C@@H]1O [IB-MECA, 1-deoxy-1-[6[[(3-iodophenyl)methyl]amino]-9H-purine-9-yl]-N-methyl-β-D-ribofura-nuronaminde]
[1]; different time points
  time dependent expression of A3AR: sinusoidal pattern
[1]; versus untreated cells
  A3AR protein level: down-regulated
[2]
  A3AR level: down-regulation
  GSK-3β expression level: up-regulation
  c-myc level: decrease
  cyclin D1 level: decrease
[3]
  GSK-3β expression level: up-regulation
  NF-κB level: down-regulation
  PKAc level: down-regulation
  PKB/Akt level: down-regulation
  c-myc level: down-regulation
  cyclin D1 level: down-regulation
  β-catenin level: down-regulation
